Measurements as given in patent EP1976513B1 (priority 2006, dated 2007).
Read-outs that look alike come from different tables or passages of the source.

Tests used:
mice [1] = experiment: Mouse locomotor activity; assay type: in vivo; settings: PO; further: unit not given here
Experimental: (§1) In order to ensure effects of the compounds on immobility time were not related to a general stimulant effect on baseline motor activity, locomotor activity was assessed using photocell monitored cages (Med-Associates Inc.). Each test chamber was equipped with infrared photocell beams to measure movement of the animals. Horizontal and vertical activity were measured
(§2) Rats or mice were pretreated with vehicle or test compounds and placed back in home cage, following which they will be individually placed in locomotor cages and activity was monitored in 5 minute intervals for up to 60 min.
(§3) Data were analyzed by one way analysis of variance (ANOVA) followed by post-hoc comparisons where appropriate. An effect was considered significant if p < 0.05. Data are represented as the mean and standard error to the mean (s.e.m).

mice [2] = experiment: Mouse tail suspension test; assay type: in vivo; settings: PO, 30-60 minutes before the test, 5 minutes recording
[3] = target: Norepinephrine Transporter (NET) Sites in Mouse Brain (Mus musculus, UniProt O55192); settings: PO, mice sacrificed 60 minutes after treatment, cortex
[4] = target: T1, DA Transporter (DAT) Sites in Mouse Brain (Mus musculus, UniProt Q61327); experiment: Ex vivo [3H] WIN 35428 binding after oral dosing; set-up: species or system C57BL/6 mice; settings: mice sacrificed 60 minutes after treatment, striatum
T1 construct: Striatum was used to determine occupancy of DA transporter sites; from tissue; host or cells: C57BL/6 mouse striatum homogenate

Rats [5] = experiment: Rat forced swim test; assay type: in vivo; settings: PO, 24 hours and 30-60 minutes before the 5 minute test
Rats [6] = experiment: Rat locomotor activity; assay type: in vivo; settings: PO
Experimental: as §1, §2, §3

Norepinephrine Transporter (NET) Sites in Mouse Brain, sequence (O55192 whole entry): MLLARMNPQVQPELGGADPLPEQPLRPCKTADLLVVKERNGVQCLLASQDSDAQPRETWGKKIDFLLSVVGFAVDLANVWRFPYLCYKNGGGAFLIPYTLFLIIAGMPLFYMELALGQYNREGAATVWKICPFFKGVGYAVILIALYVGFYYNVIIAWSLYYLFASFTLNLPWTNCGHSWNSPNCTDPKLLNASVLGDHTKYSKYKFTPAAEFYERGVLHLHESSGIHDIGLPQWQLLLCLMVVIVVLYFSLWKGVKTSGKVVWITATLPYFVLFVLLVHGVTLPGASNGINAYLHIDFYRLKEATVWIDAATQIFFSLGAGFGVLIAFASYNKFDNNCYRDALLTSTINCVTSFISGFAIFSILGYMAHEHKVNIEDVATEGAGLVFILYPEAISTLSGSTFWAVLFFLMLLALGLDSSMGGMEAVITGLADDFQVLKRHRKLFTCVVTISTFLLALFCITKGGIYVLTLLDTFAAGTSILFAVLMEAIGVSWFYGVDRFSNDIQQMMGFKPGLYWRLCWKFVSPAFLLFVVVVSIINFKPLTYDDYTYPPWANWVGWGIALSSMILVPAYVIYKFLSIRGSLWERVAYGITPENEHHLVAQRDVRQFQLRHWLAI
T1 sequence (Q61327 whole entry): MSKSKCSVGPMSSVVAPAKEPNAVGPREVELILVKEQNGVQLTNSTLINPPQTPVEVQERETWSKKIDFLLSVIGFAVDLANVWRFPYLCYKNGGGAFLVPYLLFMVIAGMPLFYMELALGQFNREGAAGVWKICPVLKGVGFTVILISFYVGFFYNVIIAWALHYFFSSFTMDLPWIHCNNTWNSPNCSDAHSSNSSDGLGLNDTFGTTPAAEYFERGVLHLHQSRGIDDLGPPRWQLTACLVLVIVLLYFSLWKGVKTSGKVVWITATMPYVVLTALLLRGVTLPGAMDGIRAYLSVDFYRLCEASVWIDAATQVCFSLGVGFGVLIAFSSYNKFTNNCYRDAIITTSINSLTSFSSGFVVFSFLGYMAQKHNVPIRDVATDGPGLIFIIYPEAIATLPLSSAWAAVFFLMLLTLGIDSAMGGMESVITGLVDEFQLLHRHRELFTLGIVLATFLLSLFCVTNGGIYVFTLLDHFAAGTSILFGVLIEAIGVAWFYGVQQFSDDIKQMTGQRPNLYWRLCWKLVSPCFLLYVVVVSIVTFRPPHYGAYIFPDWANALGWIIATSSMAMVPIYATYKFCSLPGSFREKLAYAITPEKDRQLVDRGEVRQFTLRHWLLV

Structure (SMILES): CCC(N)C1(c2ccc(Cl)c(Cl)c2)CCCCC1 (single isomer, unassigned) [17 E1, 1-(1-(3,4-dichlorophenyl)cyclohexyl)propan-1-amine]
- Mouse Locomotor Activity Total Distance Traveled ± S.E.M. (mice [1]; 3 mg/kg): 649.3 ± 78.4
- Mouse Locomotor Activity Total Distance Traveled ± S.E.M. (mice [1]; 10 mg/kg): 478.3 ± 88.5
- Mouse Locomotor Activity Total Distance Traveled ± S.E.M. (mice [1]; 30 mg/kg): 428.3 ± 120.6
- Mouse Tail Suspension Mean Immobility Time ± S.E.M. (mice [2]; 3 mg/kg): 184.7 ± 9.0
- Mouse Tail Suspension Mean Immobility Time ± S.E.M. (mice [2]; 10 mg/kg): 182.6 ± 4.1
- Mouse Tail Suspension Mean Immobility Time ± S.E.M. (mice [2]; 30 mg/kg): 150.9 ± 7.8

Structure (SMILES): CNC(C)C1(c2ccc(Cl)c(Cl)c2)CCCCC1 (single isomer, unassigned) [44 E1, 1-(1-(3,4-dichlorophenyl)cyclohexyl)-N-methylethanamine]
- Mouse Locomotor Activity Total Distance Traveled ± S.E.M. (mice [1]; 3 mg/kg): 576.5 ± 66.9
- Mouse Locomotor Activity Total Distance Traveled ± S.E.M. (mice [1]; 10 mg/kg): 721.1 ± 36.5
- Mouse Locomotor Activity Total Distance Traveled ± S.E.M. (mice [1]; 30 mg/kg): 402.3 ± 71.0
- Mouse Tail Suspension Mean Immobility Time ± S.E.M. (mice [2]; 3 mg/kg): 188.9 ± 7.3
- Mouse Tail Suspension Mean Immobility Time ± S.E.M. (mice [2]; 10 mg/kg): 174.5 ± 8.1
- Mouse Tail Suspension Mean Immobility Time ± S.E.M. (mice [2]; 30 mg/kg): 120.4 ± 9.0

Structure (SMILES): CNC(C)C1(c2ccc(Cl)c(Cl)c2)CCCCC1.Cl (single isomer, unassigned) [48 E1, 1-(1-(3,4-dichlorophenyl)cyclohexyl)-N-methylethanamine hydrochloride]
- Mean Specific Binding (dpm) ± S.E.M., NET ([3]; 1 mg/kg): 2111 ± 119 dpm
- Mean Specific Binding (dpm) ± S.E.M., NET ([3]; 3 mg/kg): 1911 ± 144 dpm
- Mean Specific Binding (dpm) ± S.E.M., NET ([3]; 10 mg/kg): 954 ± 115 dpm
- Mean Specific Binding (dpm) ± S.E.M., NET ([3]; 30 mg/kg): 346 ± 55 dpm
- Mouse Locomotor Activity Total Distance Traveled ± S.E.M. (mice [1]; 3 mg/kg): 622.5 ± 101.6
- Mouse Locomotor Activity Total Distance Traveled ± S.E.M. (mice [1]; 10 mg/kg): 620.0 ± 79.4
- Mouse Locomotor Activity Total Distance Traveled ± S.E.M. (mice [1]; 30 mg/kg): 468.6 ± 114.2
- Mean Specific Binding (dpm) ± S.E.M., DAT ([4]; 1 mg/kg): 20656 ± 1531 dpm
- Mean Specific Binding (dpm) ± S.E.M., DAT ([4]; 3 mg/kg): 18039 ± 1265 dpm
- Mean Specific Binding (dpm) ± S.E.M., DAT ([4]; 10 mg/kg): 9792 ± 977 dpm
- Mean Specific Binding (dpm) ± S.E.M., DAT ([4]; 30 mg/kg): 3173 ± 541 dpm
- Rat Forced Swim (Means ± S.E.M.) Climbing (Rats [5]; 3 mg/kg): 7.1 ± 0.6
- Rat Forced Swim (Means ± S.E.M.) Immobility (Rats [5]; 3 mg/kg): 49.6 ± 1.5
- Rat Forced Swim (Means ± S.E.M.) Swimming (Rats [5]; 3 mg/kg): 3.7 ± 1.0
- Rat Forced Swim (Means ± S.E.M.) Climbing (Rats [5]; 10 mg/kg): 17.9 ± 2.5
- Rat Forced Swim (Means ± S.E.M.) Immobility (Rats [5]; 10 mg/kg): 35.6 ± 3.5
- Rat Forced Swim (Means ± S.E.M.) Swimming (Rats [5]; 10 mg/kg): 6.5 ± 1.6
- Rat Forced Swim (Means ± S.E.M.) Climbing (Rats [5]; 30 mg/kg): 20.6 ± 2.9
- Rat Forced Swim (Means ± S.E.M.) Immobility (Rats [5]; 30 mg/kg): 26.9 ± 4.4
- Rat Forced Swim (Means ± S.E.M.) Swimming (Rats [5]; 30 mg/kg): 9.7 ± 1.7
- Rat Locomotor Activity Total Distance Traveled ± S.E.M. (Rats [6]; 3 mg/kg): 1869.9 ± 188.4
- Rat Locomotor Activity Total Distance Traveled ± S.E.M. (Rats [6]; 10 mg/kg): 1825.3 ± 109.3
- Rat Locomotor Activity Total Distance Traveled ± S.E.M. (Rats [6]; 30 mg/kg): 1840.6 ± 56.6
- Mouse Tail Suspension Mean Immobility Time ± S.E.M. (mice [2]; 3 mg/kg): 189.8 ± 7.2
- Mouse Tail Suspension Mean Immobility Time ± S.E.M. (mice [2]; 10 mg/kg): 174.1 ± 5.8
- Mouse Tail Suspension Mean Immobility Time ± S.E.M. (mice [2]; 30 mg/kg): 134.5 ± 9.6

Structure (SMILES): CN(C)CC1(c2ccc(Cl)c(Cl)c2)CCCCC1O (single isomer, unassigned) [153 E2, trans-2-(3,4-dichlorophenyl)-2-((dimethylamino)methyl)cyclohexanol]
- Mouse Locomotor Activity Total Distance Traveled ± S.E.M. (mice [1]; 3 mg/kg): 625.5 ± 88.8
- Mouse Locomotor Activity Total Distance Traveled ± S.E.M. (mice [1]; 10 mg/kg): 519.5 ± 88.4
- Mouse Locomotor Activity Total Distance Traveled ± S.E.M. (mice [1]; 30 mg/kg): 573.7 ± 63.6
- Rat Forced Swim (Means ± S.E.M.) Climbing (Rats [5]; 3 mg/kg): 8.8 ± 1.5
- Rat Forced Swim (Means ± S.E.M.) Immobility (Rats [5]; 3 mg/kg): 49.9 ± 1.7
- Rat Forced Swim (Means ± S.E.M.) Swimming (Rats [5]; 3 mg/kg): 1.9 ± 0.8
- Rat Forced Swim (Means ± S.E.M.) Climbing (Rats [5]; 10 mg/kg): 11.7 ± 1.8
- Rat Forced Swim (Means ± S.E.M.) Immobility (Rats [5]; 10 mg/kg): 44.0 ± 2.1
- Rat Forced Swim (Means ± S.E.M.) Swimming (Rats [5]; 10 mg/kg): 4.3 ± 1.1
- Rat Forced Swim (Means ± S.E.M.) Climbing (Rats [5]; 30 mg/kg): 22.2 ± 5.2
- Rat Forced Swim (Means ± S.E.M.) Immobility (Rats [5]; 30 mg/kg): 31.3 ± 6.7
- Rat Forced Swim (Means ± S.E.M.) Swimming (Rats [5]; 30 mg/kg): 4.6 ± 1.3
- Rat Locomotor Activity Total Distance Traveled ± S.E.M. (Rats [6]; 3 mg/kg): 1577.8 ± 80.1
- Rat Locomotor Activity Total Distance Traveled ± S.E.M. (Rats [6]; 10 mg/kg): 1994.2 ± 263.9
- Rat Locomotor Activity Total Distance Traveled ± S.E.M. (Rats [6]; 30 mg/kg): 2033.7 ± 215.4

Structure (SMILES): CN(C)CC1(c2ccc3ccccc3c2)CCCCC1O (single isomer, unassigned) [164 E1, trans-2-((dimethylamino)methyl)-2-(naphthalen-2-yl)cyclohexanol]
- Mouse Locomotor Activity Total Distance Traveled ± S.E.M. (mice [1]; 3 mg/kg): 377.8 ± 67.6
- Mouse Locomotor Activity Total Distance Traveled ± S.E.M. (mice [1]; 10 mg/kg): 210.3 ± 40.4
- Mouse Locomotor Activity Total Distance Traveled ± S.E.M. (mice [1]; 30 mg/kg): 494.0 ± 84.9
- Mouse Tail Suspension Mean Immobility Time ± S.E.M. (mice [2]; 3 mg/kg): 183.8 ± 6.5
- Mouse Tail Suspension Mean Immobility Time ± S.E.M. (mice [2]; 10 mg/kg): 162.1 ± 4.6
- Mouse Tail Suspension Mean Immobility Time ± S.E.M. (mice [2]; 30 mg/kg): 155.3 ± 7.8

Structure (SMILES): CN(C)CC1(c2ccc3ccccc3c2)CCCCC1O (single isomer, unassigned) [164 E2, trans-2-((dimethylamino)methyl)-2-(naphthalen-2-yl)cyclohexanol]
- Mouse Locomotor Activity Total Distance Traveled ± S.E.M. (mice [1]; 3 mg/kg): 518.2 ± 106.1
- Mouse Locomotor Activity Total Distance Traveled ± S.E.M. (mice [1]; 10 mg/kg): 464.5 ± 86.2
- Mouse Locomotor Activity Total Distance Traveled ± S.E.M. (mice [1]; 30 mg/kg): 669.9 ± 75.6
- Mouse Tail Suspension Mean Immobility Time ± S.E.M. (mice [2]; 3 mg/kg): 181.8 ± 6.3
- Mouse Tail Suspension Mean Immobility Time ± S.E.M. (mice [2]; 10 mg/kg): 179.1 ± 4.5
- Mouse Tail Suspension Mean Immobility Time ± S.E.M. (mice [2]; 30 mg/kg): 141.8 ± 6.0

Structure (SMILES): CNCC1(c2ccc3ccccc3c2)CCCCC1 [Compound 93, N-methyl-1-(1-(naphthalen-2-yl)cyclohexyl)methanamine]
- Mouse Locomotor Activity Total Distance Traveled ± S.E.M. (mice [1]; 3 mg/kg): 644.0 ± 55.7
- Mouse Locomotor Activity Total Distance Traveled ± S.E.M. (mice [1]; 10 mg/kg): 606.9 ± 72.4
- Mouse Locomotor Activity Total Distance Traveled ± S.E.M. (mice [1]; 30 mg/kg): 737.6 ± 89.5
- Rat Forced Swim (Means ± S.E.M.) Climbing (Rats [5]; 3 mg/kg): 9.0 ± 1.3
- Rat Forced Swim (Means ± S.E.M.) Immobility (Rats [5]; 3 mg/kg): 44.5 ± 2.5
- Rat Forced Swim (Means ± S.E.M.) Swimming (Rats [5]; 3 mg/kg): 6.5 ± 1.6
- Rat Forced Swim (Means ± S.E.M.) Climbing (Rats [5]; 10 mg/kg): 12.8 ± 2.2
- Rat Forced Swim (Means ± S.E.M.) Immobility (Rats [5]; 10 mg/kg): 41.4 ± 2.8
- Rat Forced Swim (Means ± S.E.M.) Swimming (Rats [5]; 10 mg/kg): 6.9 ± 1.3
- Rat Forced Swim (Means ± S.E.M.) Climbing (Rats [5]; 30 mg/kg): 22.2 ± 3.5
- Rat Forced Swim (Means ± S.E.M.) Immobility (Rats [5]; 30 mg/kg): 25.8 ± 5.4
- Rat Forced Swim (Means ± S.E.M.) Swimming (Rats [5]; 30 mg/kg): 12.0 ± 2.1
- Rat Locomotor Activity Total Distance Traveled ± S.E.M. (Rats [6]; 3 mg/kg): 1802.6 ± 150.6
- Rat Locomotor Activity Total Distance Traveled ± S.E.M. (Rats [6]; 10 mg/kg): 1641.0 ± 144.5
- Rat Locomotor Activity Total Distance Traveled ± S.E.M. (Rats [6]; 30 mg/kg): 2095.6 ± 147.2
- Mouse Tail Suspension Mean Immobility Time ± S.E.M. (mice [2]; 3 mg/kg): 203.5 ± 8.0
- Mouse Tail Suspension Mean Immobility Time ± S.E.M. (mice [2]; 10 mg/kg): 185.4 ± 7.9
- Mouse Tail Suspension Mean Immobility Time ± S.E.M. (mice [2]; 30 mg/kg): 162.0 ± 8.1
